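1) Cells in 96-well plates. 2) Compound, 48 h, 5 concentrations. 3) Linear interpolation between surrounding doses. 4) Unreached endpoint = highest concentration. At the GI50, growth is halved. At the TGI there is no net growth.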
What was measured:
Assay in all cases: NCI tumour cell line growth inhibition, 48 h
HCT-116 colon = system: HCT-116 colon
HCT-15 colon = system: HCT-15 colon
HT29 colon = system: HT29 colon
BT-549 breast = system: BT-549 breast
HL-60(TB) leukemia = system: HL-60(TB) leukemia
UACC-62 melanoma = system: UACC-62 melanoma
NCI-H460 lung = system: NCI-H460 lung
SF-295 CNS = system: SF-295 CNS
SK-MEL-5 melanoma = system: SK-MEL-5 melanoma
NCI-H522 lung = system: NCI-H522 lung
UO-31 renal = system: UO-31 renal
SNB-19 CNS = system: SNB-19 CNS
HOP-62 NSCLC = system: HOP-62 NSCLC
ACHN renal = system: ACHN renal
HCC-2998 colon = system: HCC-2998 colon
COLO 205 colon = system: COLO 205 colon
OVCAR-8 ovarian = system: OVCAR-8 ovarian
MDA-MB-231 breast = system: MDA-MB-231 breast
OVCAR-3 ovarian = system: OVCAR-3 ovarian
DU-145 prostate = system: DU-145 prostate
NCI/ADR-RES ovarian = system: NCI/ADR-RES ovarian
SNB-75 CNS = system: SNB-75 CNS
HOP-92 NSCLC = system: HOP-92 NSCLC
MCF7 breast = system: MCF7 breast
A549 NSCLC = system: A549 NSCLC
NCI-H23 lung = system: NCI-H23 lung
K-562 leukemia = system: K-562 leukemia
U251 CNS = system: U251 CNS

Nc1ccccc1NC(=O)c1ccc(CN2CCC/C(=C\c3cccc(Cl)c3)C2=O)cc1
GI50 (HCT-116 colon): 44.8 nM | TGI (HCT-116 colon): > 100000 nM | GI50 (HCT-15 colon): 41.9 nM | TGI (HCT-15 colon): > 100000 nM | GI50 (HT29 colon): 144 nM | TGI (HT29 colon): 1890 nM | GI50 (BT-549 breast): 1400 nM | TGI (BT-549 breast): 5520 nM | GI50 (HL-60(TB) leukemia): 449 nM | TGI (HL-60(TB) leukemia): 4890 nM | GI50 (UACC-62 melanoma): 51.7 nM | TGI (UACC-62 melanoma): 14600 nM | GI50 (NCI-H460 lung): 96.2 nM | TGI (NCI-H460 lung): > 100000 nM | GI50 (SF-295 CNS): 1050 nM | TGI (SF-295 CNS): 15200 nM | GI50 (SK-MEL-5 melanoma): 83.6 nM | TGI (SK-MEL-5 melanoma): 1080 nM | GI50 (NCI-H522 lung): 225 nM | TGI (NCI-H522 lung): 1060 nM | GI50 (UO-31 renal): 1400 nM | TGI (UO-31 renal): 6140 nM | GI50 (SNB-19 CNS): 355 nM | TGI (SNB-19 CNS): > 100000 nM | GI50 (HOP-62 NSCLC): 388 nM | TGI (HOP-62 NSCLC): > 100000 nM | GI50 (ACHN renal): 129 nM | TGI (ACHN renal): 6320 nM | GI50 (HCC-2998 colon): 1180 nM | TGI (HCC-2998 colon): 5700 nM | GI50 (COLO 205 colon): 157 nM | GI50 (OVCAR-8 ovarian): 334 nM | TGI (OVCAR-8 ovarian): > 100000 nM | GI50 (MDA-MB-231 breast): 584 nM | TGI (MDA-MB-231 breast): 7930 nM | GI50 (OVCAR-3 ovarian): 406 nM | TGI (OVCAR-3 ovarian): 7700 nM | GI50 (DU-145 prostate): 432 nM | TGI (DU-145 prostate): 25700 nM | GI50 (NCI/ADR-RES ovarian): 198 nM | TGI (NCI/ADR-RES ovarian): 6090 nM | GI50 (SNB-75 CNS): 284 nM | TGI (SNB-75 CNS): 9040 nM | GI50 (HOP-92 NSCLC): 1760 nM | TGI (HOP-92 NSCLC): 16200 nM | GI50 (MCF7 breast): 33.2 nM | TGI (MCF7 breast): 26600 nM | GI50 (A549 NSCLC): 1450 nM | TGI (A549 NSCLC): 75700 nM | GI50 (NCI-H23 lung): 342 nM | TGI (NCI-H23 lung): 24200 nM | GI50 (K-562 leukemia): 39.9 nM | TGI (K-562 leukemia): > 100000 nM | GI50 (U251 CNS): 138 nM

From PubChem BioAssay (NCI)
